Details: generated by hydrolysis of Phe and Tyr in the animal blood circulation

Question: Which “fold less potency than tubulysin A and D” value does the source give for Mep-Ile-Tuv [Mep-Ile-Tuv moiety] here?
Answer: The value was “over 200 fold”.

From patent US10501412B2, “Conjugates of cell binding molecules with cytotoxic agents” (HANGZHOU DAC BIOTECH CO., LTD., priority 2012, dated 2019)
